Holding throughout (type): cell-based
One test has as its system AR-PELP1 interaction. In words: DHT-induced AR-PELP1 co-immunoprecipitation in PCa cells. From the text:
FIG. 6. Effect of D1 and D2 on DHT induced AR-PELP1 co-immunoprecipitation in LNCaP cells.
FIGS. 7A-C. Effect of D1 and D2 on DHT induced AR-PELP1 co-immunoprecipitation in LNCaP cells. (FIG. 7A) Model depicts the proposed role for D2 in disrupting the interaction between AR and NR Box proteins such as Hsp27 and PELP1. (FIG. 7B) Effect of increasing concentration of D2 on complex formation between AR and NR Box proteins such as Hsp27 and PELP1, as shown for immunoprecipitation with AR (top panel) and with PELP1 (bottom panel). Input lysates are shown at the bottom. (FIG. 7C) Rescue of D2-induced suppression of AR-PELP1 complex formation: Following transient transfection with increasing concentrations of AR (left panel) or increasing concentration of PELP1 (right panel), LnCAP cells were treated with 10 nM DHT for 24 hours following preincubation with D2 or control D1. Extracts were immunoprecipitated with AR and immunoblotted with PELP1, AR or importin.
FIG. 6 provides confirmation that D2 was directed against the LXXLL (SEQ ID NO: 1) motif and was capable of blocking AR and PELP1 interaction in vivo was obtained from coimmunoprecipitation experiments in LnCaP PCa cells.
D2 was also able to block the DHT- and E2-induced interaction of AR with PELP1 in LAPC4, C4-2, VCAP and CWR22v1 cells. […] The ability of D2 to block AR-PELP1 interaction could be overcome by transient over-expression of PELP1 in a dose-dependent manner.

Test [1] deals with T1, interaction between AR and hsp90 (Homo sapiens, UniProt P10275).
T1 construct: endogenous in cells; host or cells: prostate cancer cells
T1 sequence (P10275 1-920): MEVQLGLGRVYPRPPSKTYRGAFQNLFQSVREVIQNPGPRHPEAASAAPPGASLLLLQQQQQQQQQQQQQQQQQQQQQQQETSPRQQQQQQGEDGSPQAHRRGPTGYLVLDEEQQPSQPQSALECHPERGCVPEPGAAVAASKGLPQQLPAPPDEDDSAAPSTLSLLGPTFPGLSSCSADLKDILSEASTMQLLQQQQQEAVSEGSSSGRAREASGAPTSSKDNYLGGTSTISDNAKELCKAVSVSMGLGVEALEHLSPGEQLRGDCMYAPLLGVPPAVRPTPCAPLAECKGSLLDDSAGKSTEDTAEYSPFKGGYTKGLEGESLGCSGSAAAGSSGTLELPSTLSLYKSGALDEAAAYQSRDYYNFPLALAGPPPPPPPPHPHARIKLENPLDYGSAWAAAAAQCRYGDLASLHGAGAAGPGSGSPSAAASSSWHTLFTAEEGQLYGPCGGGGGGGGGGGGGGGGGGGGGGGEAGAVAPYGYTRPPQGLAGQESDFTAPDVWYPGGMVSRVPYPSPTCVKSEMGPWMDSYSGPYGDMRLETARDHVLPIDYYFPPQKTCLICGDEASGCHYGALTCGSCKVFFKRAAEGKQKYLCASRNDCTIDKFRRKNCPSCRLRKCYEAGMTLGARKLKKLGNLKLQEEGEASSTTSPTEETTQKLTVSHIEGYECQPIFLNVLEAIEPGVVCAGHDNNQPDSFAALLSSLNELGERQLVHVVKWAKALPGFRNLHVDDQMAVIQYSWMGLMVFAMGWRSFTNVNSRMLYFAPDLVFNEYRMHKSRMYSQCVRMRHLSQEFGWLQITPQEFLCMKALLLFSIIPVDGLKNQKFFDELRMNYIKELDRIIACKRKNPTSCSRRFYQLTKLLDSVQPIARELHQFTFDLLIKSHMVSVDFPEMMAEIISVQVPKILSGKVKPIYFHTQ
The test is described as follows: AR-hsp90 interaction (co-immunoprecipitation). The following applies: hsp90 lacks a LXXLL motif.

The subject of the next test is PSA protein. In words: DHT-induced PSA protein expression (western blot). The following applies: protein level. From the text:
FIG. 8 confirms these findings by QPCR experiment evaluating the effect of D1 and D2 on DHT-induced TMPRSS and PSA gene expression at the RNA level in LNCaP cells (bottom left panel) and by western blot analyses as evaluated by the effect of D1 and D2 on the expression of PSA, androgen receptor and actin in LAPC4 cells at the protein level. […] Confirmation of these findings were obtained by QPCR and western blot analyses.
At the protein level, D2, but not D1, was able to block DHT-induced expression of PSA protein. Again, the suppresion of DHT-induced transcription from an ARE could be overcome by overexpression of either AR or PELP1 ([…]). Overexpression of PELP1 was able to rescue the D2-mediated suppression of DHT-induced transcription nearly back to baseline.

The subject of a further test is erk. In words: erk phosphorylation after serum starvation (western blot, FIG. 16). The following applies: following serum starvation, D1 at higher concentrations (500 nM). Here is the method:
FIG. 16. Evidence for utility of higher concentrations of D1 in blocking erk phosphorylation: following serum starvation, cells were treated with either D1 or D2 and assessed for their ability to block erk phosphorylation.
D2, and to a less extent D1, targets a validated target in prostate cancer, has the potential to be an AR-selective modulator, provides a novel mechanism of action, and will likely provide a sustained effect in the context of therapy.

For another test, the system named is AR nuclear translocation. In words: DHT-induced nuclear translocation of AR in LNCaP cells. As for the experimental part:
FIGS. 13A-B. Effect on DHT-induced nuclear translocation of exogenous AR-GFP in LNCaP cells transiently transfected with AR. (a) Blue stain is DAPI (for nucleus) and green is AR (GFP). Baseline untreated LNCaP cells are shown in top left panel. Cells were pretreated with DMSO (left panel), 100 nM D1 (middle panel) and 100 nM D2 (right panel) and then treated with 1 nM DHT. AR nuclear translocation was visualized at 4 hours following DHT treatment. (b) Nuclear and cytoplasmic extracts were collected from similar cells and subject to western analyses.
FIG. 13 shos that pretreatment with D2 blocked DHT-induced translocation of AR-GFP to the nucleus in LnCaP cells compared to the control D1 or DMSO.

The next test has as its system LNCaP cells. The test is described as follows: Uptake of fluorescein analogues of D2 by LNCaP cells. The note with it: summary statement. Here is the method:
FIGS. 14A-C. Effect of chemical conjugation of Fluorescein to D2 at the amino and carboxy terminus (FIG. 14A) on uptake by LnCaP cells at 4 hours (FIG. 14B) and on DHT-induced proliferation of PCa cells (FIG. 14C).
In FIG. 14, two fluorescent analogues of D2 were prepared, one by introducing a fluorescein moiety to the C-terminus of D2 (CF1-D2) and the other by placing it at the N-terminus (CF2-D2).

As for `COC(=O)c1ccc(NC(=O)c2ccc([N+](=O)[O-])c(OCC(C)C)c2)c(OCC(C)C)c1` [D2], the “stability of AR or PELP1” value with AR-PELP1 interaction is “did not adversely affect”. For the same molecule, the “DHT- and E2-induced interaction of AR with PELP1” value in the test with AR-PELP1 interaction (LAPC4, C4-2, VCAP and CWR22v1 cells) is recorded as “able to block”. Also, in the test on AR-PELP1 interaction (LnCaP cells, preincubation with 100 nM), the “DHT-induced physical interaction of AR and PELP1” value is given as “blocked”. Also, in the test with AR-PELP1 interaction (increasing concentration, FIG. 7), the “AR-PELP1 interaction, dose dependence” value was “blocked AR-PELP1 interaction in a dose-dependent manner”. Further, the “interaction between AR and hsp90” value in test [1] is on record as “not able to affect”. In addition, the “DHT-induced expression of PSA protein” value with PSA protein is reported as “able to block”. For the same molecule, in the test on erk, the “erk activation / phosphorylation” value is “blocks at lower concentrations”. The “DHT-induced translocation of AR-GFP to the nucleus (imaging)” value in the test on AR nuclear translocation (100 nM pretreatment, 1 nM DHT, 4 hours) was “blocked”. The “AR nuclear translocation (nuclear and cytoplasmic extracts)” value in the test on AR nuclear translocation (upon addition of DHT) was “prevents AR nuclear translocation”. Also, the “entry into prostate cancer cells” value in the test with LNCaP cells is recorded as “enters the prostate cancer cells”.

The values are drawn from US10618869B2, “Oligo-benzamide compounds and their use” (The Board of Regents of the University of Texas System, priority 2010, dated 2020).
